PMC4775281 (Structure (London, England : 1993), 2016)

Molecular target: catalytic subunit of the cAMP-dependent protein kinase A (PKA-C) (Mus musculus, UniProt P05132)
Assay: isothermal titration calorimetry
Format: binding

SMILES: Nc1ncnc2c1ncn2[C@@H]1O[C@H](COP(=O)(O)O)[C@@H](O)[C@H]1O [AMP]
- Kd: ~250 µM
